Data on one molecule can be found in patent US20190070170A1, “METHOD OF S[…]-1” (Macau University of Science and Technology, priority 2017, published 2019).

The subject of one assay is iNOS. Kind of assay: iNOS protein level in LPS-stimulated RAW264.7 cells (immunoblotting). It counts as cell-based, mouse. To be noted: pretreatment 1 h, LPS 100 ng/ml 18 h. Here is the method: (§1) RAW264.7 and A549 cell lines were obtained from American Type Culture Collection (ATCC, Manassas, Va., USA) and maintained in DMEM (RAW264.7) or 1640 (A549) medium containing 10% FBS (Gibco-BRL, Grand Island, N.Y., USA) and antibiotics at 37° C. in a humidified atmosphere containing 5% CO2. RAW264.7 cells were plated in 6-well plates at a density of 4×10^5 cells and incubated for 24 h, then the cells were pretreated with different concentrations of SIN for 1 h before stimulating with LPS (100 ng/ml). A549 cells were seeded in 6-well plates at a density of 1×10^5 cells and incubated for 24 h, followed by pretreatment with SIN. A549 cells were then stimulated by IL-1β (1 ng/ml).
(§2) Whole-cell and nuclear proteins were obtained using RIPA lysis buffer (CST, Boston, Mass., USA) and Nuclear and Cytoplasmic Extraction Reagents kit from Thermo Scientific (Asheville, N.C., USA), respectively. For immunoblotting, proteins from whole-cell, cytoplasm, nuclear, and microsomal fractions were separated on SDS-PAGE, then transferred onto a nitrocellulose membrane from GE Healthcare Life Sciences (Buckinghamshire, UK), and incubated with 5% skimmed milk at room temperature for 1 h. […] The levels of protein expression were measured using Odyssey v3.0 software from Li-COR (Lincoln, Nebr., USA).
Background: In western blotting, separated proteins are transferred to a membrane and probed.

The next assay deals with CEBPβ (mPGES-1 promoter). Kind of assay: ChIP assay: CEBPβ DNA binding to mPGES-1 promoter in LPS-stimulated rat peritoneal macrophages. To be noted: 640 μM SIN 1 h, 1 μg/ml LPS 30 min. It counts as cell-based. The method, then: (§3) Rat peritoneal macrophages were pretreated with 640 μM SIN (1 h) and stimulated with 1 μg/ml LPS (30 min) before fixation at room temperature for 10 min with 1% formaldehyde. Fixation was terminated by adding glycine (to 0.125 M) with an additional incubation of 5 min, then the cells were washed twice with ice-cold PBS and harvested by scraping and centrifugation (1500 rpm for 10 min at 4° C.). Cell lysis was performed using ChIP kit from abcam (Cambridge, UK) according to the manufacturer's instructions. Briefly, cell pellets were resuspended in 1 ml Buffer B by pipetting up and down several times in a microcentrifuge tube and incubated at room temperature for 10 min. After centrifugation at 5000 rpm, the pellet was collected and resuspended in ice cold Buffer C and incubated on ice for 10 min, followed by centrifugation (5,000 rpm for 10 min at 4° C.). The pellet was mixed with 100 μl Buffer D containing protease inhibitors, incubated on ice for 10 min and sonicated for 30 cycles in a Bioruptor UCD-300 sonicator (power on high, 30 s on, 30 s off per cycle), yielding DNA fragments of 150-200 bps (the size of sonicated chromatin was checked through running 2% agarose gel). Beads were blocked overnight in PBS with 0.5% BSA and then added to the samples. […]

The subject of another assay is CEBPβ (COX-2 promoter). Kind of assay: ChIP assay: CEBPβ DNA binding to COX-2 promoter in LPS-stimulated rat peritoneal macrophages. It is filed as cell-based. Conditions: 640 μM SIN 1 h, 1 μg/ml LPS 30 min. Here is the method: as §3
The subject of another assay is p-cPLA2. The assay is described as follows: p-cPLA2 protein expression in IL-1β-stimulated A549 cells (western blotting). It counts as cell-based. To be noted: IL-1β with SIN or DEX for 48 h. Here is the method: as §1, §2

Structures are written as SMILES.

In the case of `COC1=C[C@@H]2[C@@H]3Cc4ccc(OC)c(O)c4[C@]2(CCN3C)CC1=O` [SIN, sinomenine], in the assay on iNOS, the iNOS expression entry is “significantly inhibited”. Moreover, the “DNA binding of CEBPβ to the mPGES-1 promoter” value in the assay with CEBPβ (mPGES-1 promoter) is “inhibited”. For the same molecule, the “DNA binding of CEBPβ to the COX-2 promoter” value with CEBPβ (COX-2 promoter) was “inhibited”. Moreover, in the assay on p-cPLA2, the p-cPLA2 protein expression entry is “did not suppress”.
